Assay results as given in US20160108049A1 (TAKEDA Gmbh, priority 2011, published 2016).

Legend:
PDE4B1 = target: T1, PDE4B1 (Homo sapiens, UniProt Q07343); experiment: Inhibition of PDE4 activity (PDE4B1, SPA assay); assay type: biochemical; details: recombinant PDE4B1, 0.5 μM cAMP; read-out: PDE4B1 Inhibitory values measured as -logIC50 (converted)
T1 construct: made in house; host or cells: SF21 insect cells (baculovirus; virus made in SF9 cells, pCR-Bac vector)
Method in brief: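 Baculovirus-expressed enzyme from SF21 cell 1000×g supernatant; substrate 0.5 μM [3H]cAMP in 20 mM Tris pH 7.4, 5 mM Mg2+, 0.1 mg/ml BSA, 10-20% conversion. 5 min preincubation at 37 °C, 15 min reaction, stopped by SPA beads with IBMX; IC50 by non-linear regression.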

human PDE5 = target: T2, human PDE5 (Homo sapiens, UniProt O76074); experiment: Inhibition of PDE5 activity (platelet lysate, SPA assay); assay type: biochemical; details: 0.5 μM cGMP, read-out: PDE5 Inhibitory values measured as -logIC50 (converted)
T2 construct: from tissue; host or cells: human platelets from fresh donor blood (platelet lysate)
Method in brief: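 Human platelet lysate (10,000 g supernatant) served as PDE5 source, with 1 μM motapizone and 10 nM PDE2 inhibitor added, in Tris pH 7.4, 5 mM Mg2+, BSA. Substrate 0.5 μM [3H]cGMP, 10–20% conversion; 5 min preincubation then 15 min at 37 °C, stopped by SPA beads with IBMX. IC50 by non-linear regression.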

T1 sequence (Q07343 whole entry): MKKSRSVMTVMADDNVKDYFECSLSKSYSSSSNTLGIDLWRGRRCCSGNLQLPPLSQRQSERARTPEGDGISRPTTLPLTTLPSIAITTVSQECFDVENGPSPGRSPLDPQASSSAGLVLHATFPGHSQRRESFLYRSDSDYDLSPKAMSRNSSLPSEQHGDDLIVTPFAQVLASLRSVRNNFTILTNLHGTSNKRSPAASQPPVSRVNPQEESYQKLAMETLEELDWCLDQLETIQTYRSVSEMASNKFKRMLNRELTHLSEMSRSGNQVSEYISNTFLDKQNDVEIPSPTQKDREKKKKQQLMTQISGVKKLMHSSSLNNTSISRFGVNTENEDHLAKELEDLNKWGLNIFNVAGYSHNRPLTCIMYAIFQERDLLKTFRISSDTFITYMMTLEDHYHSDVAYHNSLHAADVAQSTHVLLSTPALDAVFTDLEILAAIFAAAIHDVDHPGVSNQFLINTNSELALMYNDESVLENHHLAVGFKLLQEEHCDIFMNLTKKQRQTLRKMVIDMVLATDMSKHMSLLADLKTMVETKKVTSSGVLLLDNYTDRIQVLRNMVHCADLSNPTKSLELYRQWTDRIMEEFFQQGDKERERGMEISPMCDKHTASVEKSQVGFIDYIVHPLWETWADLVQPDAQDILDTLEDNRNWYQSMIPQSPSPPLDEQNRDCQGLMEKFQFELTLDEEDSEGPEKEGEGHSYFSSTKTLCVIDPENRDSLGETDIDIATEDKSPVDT

SMILES | IC50 (PDE4B1) [nM] | IC50 (human PDE5) [nM]
COc1ccc(C2=NN(C3CCN(C(=O)[C@H](Cc4cccs4)NC(=O)c4c[nH]c5c(-c6c(OCC7CC7)ccc7c6OCO7)ncnc45)CC3)C(=O)[C@@H]3CCCC[C@H]23)cc1OC [Example 75, 4-[5-(cyclopropylmethoxy)-1,3-benzodioxol-4-yl]-N-[(2S)-1-{4-[(4aS,8aR)-4-(3,4-dimethoxyphenyl)-1-oxo-4a,5,6,7,8,8a-hexahydrophthalazin-2(1H)-yl]piperidin-1-yl}-1-oxo-3-(thiophen-2-yl)propan-2-yl]-5H-pyrrolo[3,2-d]pyrimidine-7-carboxamide] | < 1 | 1 to 10
COc1ccc(C2=NN(C3CCN(C(=O)[C@@H](Cc4ccc(-c5ccccc5)cc4)NC(=O)c4c(C)[nH]c5c(-c6c(OCC7CC7)ccc7c6OCO7)ncnc45)CC3)C(=O)[C@@H]3CCCC[C@H]23)cc1OC [Example 12, N-[(2R)-3-(biphenyl-4-yl)-1-{4-[(4aS,8aR)-4-(3,4-dimethoxyphenyl)-1-oxo-4a,5,6,7,8,8a-hexahydrophthalazin-2(1H)-yl]piperidin-1-yl}-1-oxopropan-2-yl]-4-[5-(cyclopropylmethoxy)-1,3-benzodioxol-4-yl]-6-methyl-5H-pyrrolo[3,2-d]pyrimidine-7-carboxamide] | 1 to 10 | 1 to 10
COc1ccc(C2=NN(C3CCN(C(=O)[C@@H](Cc4ccccc4Cl)NC(=O)c4c[nH]c5c(-c6c(OCC7CC7)ccc7c6OCO7)ncnc45)CC3)C(=O)[C@@H]3CCCC[C@H]23)cc1OC [Example 35, N-[(2R)-3-(2-chlorophenyl)-1-{4-[(4aS,8aR)-4-(3,4-dimethoxyphenyl)-1-oxo-4a,5,6,7,8,8a-hexahydrophthalazin-2(1H)-yl]piperidin-1-yl}-1-oxopropan-2-yl]-4-[5-(cyclopropylmethoxy)-1,3-benzodioxol-4-yl]-5H-pyrrolo[3,2-d]pyrimidine-7-carboxamide] | < 1 | < 1
COc1ccc(C2=NN(C3CCN(C(=O)[C@@H](Cc4ccc(Cl)cc4)NC(=O)c4c[nH]c5c(-c6c(OCC7CC7)ccc7c6OCO7)ncnc45)CC3)C(=O)[C@@H]3CCCC[C@H]23)cc1OC [Example 27, N-[(2R)-3-(4-chlorophenyl)-1-{4-[(4aS,8aR)-4-(3,4-dimethoxyphenyl)-1-oxo-4a,5,6,7,8,8a-hexahydrophthalazin-2(1H)-yl]piperidin-1-yl}-1-oxopropan-2-yl]-4-[5-(cyclopropylmethoxy)-1,3-benzodioxol-4-yl]-5H-pyrrolo[3,2-d]pyrimidine-7-carboxamide] | 1 to 10 | < 1
COc1ccc(C2=NN(C3CCN(C(=O)[C@@H](Cc4ccccc4)NC(=O)c4c(C)[nH]c5c(-c6c(OCC7CC7)ccc7c6OCO7)ncnc45)CC3)C(=O)C(C)(C)C2)cc1OC [Example 66, 4-[5-(cyclopropylmethoxy)-1,3-benzodioxol-4-yl]-N-[(2R)-1-{4-[3-(3,4-dimethoxyphenyl)-5,5-dimethyl-6-oxo-5,6-dihydropyridazin-1(4H)-yl]piperidin-1-yl}-1-oxo-3-phenylpropan-2-yl]-6-methyl-5H-pyrrolo[3,2-d]pyrimidine-7-carboxamide] | < 1 | < 1
COc1ccc(C2=NN(C3CCN(C(=O)[C@@H](Cc4ccccc4C(F)(F)F)NC(=O)c4c[nH]c5c(-c6c(OCC7CC7)ccc7c6OCO7)ncnc45)CC3)C(=O)[C@@H]3CCCC[C@H]23)cc1OC [Example 33, 4-[5-(cyclopropylmethoxy)-1,3-benzodioxol-4-yl]-N-{(2R)-1-{4-[(4aS,8aR)-4-(3,4-dimethoxyphenyl)-1-oxo-4a,5,6,7,8,8a-hexahydrophthalazin-2(1H)-yl]piperidin-1-yl}-1-oxo-3-[2-(trifluoromethyl)phenyl]propan-2-yl}-5H-pyrrolo[3,2-d]pyrimidine-7-carboxamide] | 1 to 10 | < 1
COc1ccc(C2=NN(C3CCN(C(=O)[C@@H](Cc4ccc(O)cc4)NC(=O)c4c[nH]c5c(-c6c(OCC7CC7)ccc7c6OCO7)ncnc45)CC3)C(=O)[C@@H]3CCCC[C@H]23)cc1OC [Example 52, 4-[5-(cyclopropylmethoxy)-1,3-benzodioxol-4-yl]-N-[(2R)-1-{4-[(4aS,8aR)-4-(3,4-dimethoxyphenyl)-1-oxo-4a,5,6,7,8,8a-hexahydrophthalazin-2(1H)-yl]piperidin-1-yl}-3-(4-hydroxyphenyl)-1-oxopropan-2-yl]-5H-pyrrolo[3,2-d]pyrimidine-7-carboxamide] | < 1 | < 1

Next, values leading:

IC50 (PDE4B1) [nM] | IC50 (human PDE5) [nM] | SMILES
< 1 | < 1 | COc1ccc(C2=NN(C3CCN(C(=O)C(Cc4c[nH]c5ccccc45)NC(=O)c4c[nH]c5c(-c6c(OCC7CC7)ccc7c6OCO7)ncnc45)CC3)C(=O)C3CCCCC23)cc1OC [Example 92, 4-[5-(cyclopropylmethoxy)-1,3-benzodioxol-4-yl]-N-[(2S)-1-{4-[(4aS,8aR)-4-(3,4-dimethoxyphenyl)-1-oxo-4^a,5,6,7,8,8^a-hexahydrophthalazin-2(1H)-yl]piperidin-1-yl}-3-(1H-indol-3-yl)-1-oxopropan-2-yl]-5H-pyrrolo[3,2-d]pyrimidine-7-carboxamide]
< 1 | < 1 | COc1ccc(C2=NN(C3CCN(C(=O)[C@H](Cc4c[nH]cn4)NC(=O)c4c[nH]c5c(-c6c(OCC7CC7)ccc7c6OCO7)ncnc45)CC3)C(=O)[C@@H]3CCCC[C@H]23)cc1OC [Example 90, 4-[5-(cyclopropylmethoxy)-1,3-benzodioxol-4-yl]-N-[(2S)-1-{4-[(4aS,8aR)-4-(3,4-dimethoxyphenyl)-1-oxo-4a,5,6,7,8,8a-hexahydrophthalazin-2(1H)-yl]piperidin-1-yl}-3-(1H-imidazol-4-yl)-1-oxopropan-2-yl]-5H-pyrrolo[3,2-d]pyrimidine-7-carboxamide]
< 1 | < 1 | COc1ccc(C2=NN(C3CCN(C(=O)[C@@H](Cc4ccc(F)cc4)NC(=O)c4c[nH]c5c(-c6c(OCC7CC7)ccc7c6OCO7)ncnc45)CC3)C(=O)C(C)(C)C2)cc1OC [Example 108, 4-[5-(cyclopropylmethoxy)-1,3-benzodioxol-4-yl]-N-[(2R)-1-{4-[3-(3,4-dimethoxyphenyl)-5,5-dimethyl-6-oxo-5,6-dihydropyridazin-1(4H)-yl]piperidin-1-yl}-3-(4-fluorophenyl)-1-oxopropan-2-yl]-5H-pyrrolo[3,2-d]pyrimidine-7-carboxamide]
1 to 10 | 1 to 10 | COc1ccc(C2=NN(C3CCN(C(=O)[C@@H](C)NC(=O)c4c[nH]c5c(-c6c(OCC7CC7)ccc7c6OCO7)ncnc45)CC3)C(=O)C(C)(C)C2)cc1OC [Example 111, 4-[5-(cyclopropylmethoxy)-1,3-benzodioxol-4-yl]-N-[(2R)-1-{4-[3-(3,4-dimethoxyphenyl)-5,5-dimethyl-6-oxo-5,6-dihydropyridazin-1(4H)-yl]piperidin-1-yl}-1-oxopropan-2-yl]-5H-pyrrolo[3,2-d]pyrimidine-7-carboxamide]
1 to 10 | 1 to 10 | COc1ccc(C2=NN(C3CCN(C(=O)[C@@H](CCC(=O)OCc4ccccc4)NC(=O)c4c[nH]c5c(-c6c(OCC7CC7)ccc7c6OCO7)ncnc45)CC3)C(=O)[C@@H]3CCCC[C@H]23)cc1OC [Example 100, Benzyl (4R)-4-[({4-[5-(cyclopropylmethoxy)-1,3-benzodioxol-4-yl]-5H-pyrrolo[3,2-d]pyrimidin-7-yl}carbonyl)amino]-5-{4-[(4aS,8aR)-4-(3,4-dimethoxyphenyl)-1-oxo-4a,5,6,7,8,8a-hexahydrophthalazin-2(1H)-yl]piperidin-1-yl}-5-oxopentanoate]
